Here are results for five molecules from US20230082968A1, “EXOGENOUS NITRIC OXIDE FOR IMPROVED SUSCEPTIBILITY AND LOWERED ANTIBIOTIC RESISTANCE IN RESISTANT RESPIRATORY BACTERIA” (The University of North Carolina at Chapel Hill, priority 2020, published 2023).

In brackets after ≈: the same amount, converted by molar mass. Entries after “also recorded” stand apart in the source; their conditions may differ.

For test [1], the system named is P. aeruginosa strain K (PAK). Kind of test: Checkerboard assay of antibiotic combinations with COS/NO. Type of test: cell-based, Pseudomonas aeruginosa. The note with it: antibiotic in combination with COS/NO, 24 h. The method, then:
Frozen stocks of bacteria were reconstituted in TSB (3 mL) and cultured overnight. The overnight cultures of bacteria (3 mL) were inoculated into fresh TSB (30 mL) and grown to 10^8 CFU/mL. […] Inhibition was assessed with the resazurin assay and the minimum inhibitory concentration (MIC) was defined as the lowest concentration of antibacterial agent required to prevent the reduction of resazurin (i.e., color change from blue to pink).
Mol. Pharm. 7, 2289-2296 (2010)]. Briefly, bacteria at a final concentration of 10^6 CFU/mL were incubated with an array of antimicrobial combinations in TSB for 24 h at 37° C. The highest concentration for each antimicrobial tested was 2 × MIC. […] The fractional […] concentration index (ΣFIC) was calculated using Equation 1, reported by Elion et al. [Elion, G. B., Singer, S. & Hitchings, G. H. Antagonists of Nucleic Acid Derivatives: VIII. Synergism in combinations of biochemically related antimetabolites. […] Checkerboard assays were conducted in at least duplicate for each bacterial strain and for each drug combination.
Characterization of the combinations was performed using the following criteria based on ΣFIC values: < 0.25 is highly synergistic; ≤ 0.5 is synergistic; ≤ 1 is additive; ≤ 4 is indifferent; > 4 is antagonistic.

Test [2] has as its system PAK. The test can be described thus: Nitric oxide pretreatment with planktonic bacteria. Type of test: cell-based, Pseudomonas aeruginosa. As to conditions: NO-pretreatment 25% MIC 4 h. The procedure: After exposure, wells were serially diluted in sterile MilliQ water and spiral plated on TSA. Viability was assessed by colony counting.
The next test has as its system P. aeruginosa biofilms. Kind of test: Biofilm pretreatment with nitric oxide, all tested biofilms. The test is classed as cell-based. As to conditions: P. aeruginosa biofilms, COS/NO at 25% MBEC. The method, then:
Bacteria were cultured to a concentration of 10^8 CFU/mL in TSB and diluted to 10^6 CFU/mL in 200 µL TSB in a 96 well plate. Plates were incubated with shaking for 3 days until a non-surface attached viscous aggregate formed that was easily separated from growth medium. Biofilms (100 µL) were removed, gently injected into PBS (200 µL) to remove loosely adhered planktonic cells, and added to a sterile 96 well plate. To the wells, PBS or test agent dissolved in PBS (100 µL) was added and incubated with shaking for 24 h. The biofilm (100 µL) was removed from the well plate, added to 900 µL sterile MilliQ water, and disrupted with pipetting and vortexing. Disrupted biofilms were serially diluted and spiral plated on TSA. Viability was assessed with colony counting. The minimum biofilm eradication concentration (MBEC) was defined as the lowest concentration of test agent required to reduce viability by 5-log (i.e., 10^8 to 10^3 CFU/mL).
The biofilm was then removed from its 96 well plate, added to a new 96 well plate containing tobramycin dissolved in PBS (100 µL), and incubated for 20 h. The biofilm was disrupted in 900 µL sterile MilliQ water with pipetting and vortexing, serially diluted, and spiral plated on TSA. Viability was assessed with colony counting.

The test system of test [3] is PAK. Kind of test: Serial passaging resistance assay. Type of test: cell-based, Pseudomonas aeruginosa. The procedure:
(§1) Bacteria at a final concentration of 10^6 CFU/mL in TSB were incubated with serial dilutions of COS/NO and/or tobramycin for 24 h. Growth was assessed by measuring absorbance at 600 nm. The wells that had the highest concentration of test agent and an OD600 corresponding to more than 10^8 CFU/mL were diluted to 10^6 cfu/mL in TSB and incubated with fresh solutions of COS/NO or tobramycin for 24 h. A single passage was defined as one exposure, incubation, and subsequent dilution. Bacteria were passaged for up to 70 days.

A further test relates to ATCC MRSA. The test can be described thus: Serial passaging resistance assay. The test is classed as cell-based, Methicillin-resistant S. aureus. The method, then: as §1
In test [4] the test system is PAK, ATCC MRSA, ATCC BCC, and AR 542. The test can be described thus: NPN uptake assay (outer membrane permeability). Type of test: cell-based. The note with it: exposure to COS/NO, FIG. 1. The method, then: The outer membrane permeability of PAK, ATCC MRSA, ATCC BCC, and AR 542 was assessed with an NPN assay modified from Helander and coworkers [Helander, I. M. & Mattila-Sandholm, T. Fluorometric assessment of Gram-negative bacterial permeabilization. J. Appl. Microbiol. 88, 213-219 (2000)]. Briefly, a stock 4560 µM NPN in acetone solution was prepared fresh each day and diluted to 456 µM in PBS pH 7.4. Bacteria were cultured to a concentration of 10^8 CFU/mL in TSB, collected via centrifugation (5,000 × g for 5 min), and resuspended in PBS. Bacteria were added to COS/NO or DMSO in 1-dram vials and incubated at 37° C. with shaking. After 10 min of incubation, a portion of the exposure solution (196 µL) was removed and added to a black well plate, and 4 µL NPN (456 µM in PBS) was added. Fluorescence was immediately measured at excitation and emission wavelengths of 350 nm and 460 nm, respectively. The background NPN fluorescence in buffer was subtracted.

Turning to `C[C@@H](O)[C@H]1C(=O)N2C(C(=O)O)=C(S[C@@H]3CN[C@H](C(=O)N(C)C)C3)[C@H](C)[C@H]12` [Meropenem], in test [1], the “Classification (ΣFIC)” value is listed as “Synergistic” and the “ΣFIC (median fractional inhibitory concentration index)” value came out at 0.5. In the test with PAK [2] (antibiotic 2 µg/mL), the Classification result was “Synergistic” and the “Log Difference in bacteria viability with vs without NO-pretreatment” value (“Log Difference … vs without NO-pretreatment” for short) turned out to be 3.22 log.

For the molecule `C[C@H]1[C@H](NC(=O)/C(=N\OC(C)(C)C(=O)O)c2csc(N)n2)C(=O)N1S(=O)(=O)O` [Aztreonam], in test [1], the “Classification (ΣFIC)” value is given as “Additive” and the “ΣFIC (median fractional inhibitory concentration index)” value is 0.75. In the test on PAK [2] (antibiotic 2 µg/mL), the Classification result is “Synergistic” and the “Log Difference … vs without NO-pretreatment” value stood at 5.11 log.

As for `CC(C)(O/N=C(\C(=O)N[C@@H]1C(=O)N2C(C(=O)[O-])=C(C[n+]3ccccc3)CS[C@H]12)c1csc(N)n1)C(=O)O` [Ceftazidime], in test [1], the “Classification (ΣFIC)” value is “Additive” and the “ΣFIC (median fractional inhibitory concentration index)” value is reported as 1.

Consider `[N]=O` [NO, nitric oxide], for which the “biofilm viability after NO-pretreatment alone” value in the test on P. aeruginosa biofilms was “does not significantly affect; also recorded: does not significantly reduce”. The MICn in the test on PAK [3] (PAK, after n = 70 passages) worked out at 96 µg/mL; with ATCC MRSA (ATCC MRSA, after n = 30 passages), 384 µg/mL. The MIC with PAK [3] (Pseudomonas aeruginosa, read-out: MIC0) stood at 96 µg/mL (≈ 3.2 mM); with ATCC MRSA (Staphylococcus aureus, MRSA, read-out: MIC0) it was 384 µg/mL (≈ 12.8 mM). In addition, in test [4], the “uptake of the hydrophobic fluorophore NPN and crystal violet dye (cell permeability)” value is “increased uptake”.

For Colistin, in test [1], the “Classification (ΣFIC)” value is “Synergistic” and the “ΣFIC (median fractional inhibitory concentration index)” value is 0.5. Moreover, the “Log Difference … vs without NO-pretreatment” value in the test with PAK [2] (antibiotic […]) was found to be 5.13 log.
